# Tested on: DIO mice
# Test: Chronic GIPA-2 study: circulating lipids, liver and fat depots in DIO mice
# Format: in vivo, mouse
# Conditions: day 28, n = 10
# Method: For studying the chronic effects of GIPA-2, male C57BL/6JRj mice (n = 40) were fed a HFD (SSNIFF® diet #12492) for 43 weeks. DIO mice were randomized (n = 10 per group) based on baseline blood glucose and body weight. Liraglutide was dissolved in PBS plus 0.1% BSA (Vehicle1) and GIPA-2 in PBS (vehicle 2). Mice received one of the following four treatments daily for 28 days while still maintained on HFD: (1) vehicle 1 (SC) and vehicle 2 (SC); (2) 0.2 mg/kg liraglutide (SC) and vehicle 2; (3) vehicle 1 (SC) and 10 mg/kg GIPA-2 (SC); and (4) 0.2 mg/kg liraglutide (SC) plus 10 mg/kg GIPA-2 (SC). GIPA-2 dose levels were selected based on doses shown to sufficiently antagonize insulinotropic actions of exogenous GIP in acute IPGTT studies (Fig 1J) adjusted for single daily dosing over the 4-week treatment period. Fasted (4 hrs) blood glucose and insulin were measured on study day -4, 10 and 26. An OGTT was performed on day 17. On the day of the OGTT the fasted animals (4 hrs) received their daily doses of vehicles, liraglutide and GIPA-2 one hour before receiving a glucose bolus (2 g/kg). Blood glucose was measured before their daily dosing and at 0, 15, 30 60, 120, 180 and 240 min after glucose administration. An insulin tolerance test (ITT) was performed on day 24. Fasting (4 hrs) mice received their daily doses of vehicles, liraglutide and GIPA-2 one hour before receiving insulin (0.5 U/kg, intraperitoneal injection). Blood glucose was measured before their daily dosing and at 0, 15, 30 60, 120, 180 min after glucose administration. Similar measurements were performed as in the GIPA-1 study. […]
# Fasting blood glucose was measured using a BIOSEN c-Line glucose meter (EKF-Diagnostics), insulin was measured using the Meso Scale Diagnostics platform, TG and TC were measured using commercial kits (Roche Diagnostics) on the Cobas C-501 autoanalyzer (Roche), and FFA levels were measured using a Wako Chemicals kit on the Cobas C-501 autoanalyzer, all according to the manufacturers’ instructions. Homeostatic model assessment of insulin resistance (HOMA-IR) was calculated using the following equation: [fasting serum glucose (mmol/L) × fasting serum insulin (pmol/L) / 22.5] to assess insulin resistance.
# Fig 4 The effect of GIPR antagonism alone or in combination with liraglutide on lipid homeostasis in DIO mice. […] Statistical analysis was calculated using one-way ANOVA with Dunnett’s post-hoc test. *: p< 0.05, **: p < 0.01, ***: p < 0.001, ****: p<0.0001 compared to vehicle.
# Supplementary file pone.0249239.s002.tif: S2 Fig The effect of GIPR antagonists alone or in combination with liraglutide on lipid homeostasis in DIO mice. […] Statistical analysis was calculated using one-way ANOVA with Dunnett’s post-hoc test. *: p< 0.05, **: p < 0.01, ***: p < 0.001, ****: p<0.0001 compared to vehicle. […]
substance,measurement,value
liraglutide,circulating total cholesterol (TC),significantly reduced circulating TC and liver TG concentrations
same,liver TG,significantly reduced circulating TC and liver TG concentrations
same,plasma FFA,no effect on either plasma TG or concentrations of circulating FFA
same,plasma TG,no effect on either plasma TG or concentrations of circulating FFA

# Source: article PMC8011784, “Chronic peptide-based GIP receptor inhibition exhibits modest glucose metabolic changes in mice when administered either alone or combined with GLP-1 agonism” (PLoS ONE, 2021)
